Source: the NIST ThermoML archive (doi:10.1021/je900298e)

Details: 101.33 kPa, Liquid

CCCC[N+]1(C)CCCC1.O=S(=O)([N-]S(=O)(=O)C(F)(F)F)C(F)(F)F
Details | mass density [kg/m3]
289 K | 1404.3
291 K | 1402.6
293 K | 1401
295 K | 1399.4
297.05 K | 1397.8
299.05 K | 1396.2
301.05 K | 1394.6
303.1 K | 1393.1
305.1 K | 1391.5
307.1 K | 1390
309.1 K | 1388.5
